# From US3991210A, “Acetamidine urinary antiseptics” (The Dow Chemical Company, priority 1975, dated 1976)
# Where a name gives a salt, the structure may show the parent alone.
# Experiments:
# [1] = tested on: Escherichia coli; experiment: Antimicrobial activity of urine collected from mice after oral dosing, against Escherichia coli; format: in vivo; details: for urinary antiseptic activity, EC: single oral dose 56.2 mg/kg; as to urinary antiseptic activity, EC: key: +: urinary antiseptic activity and inhibition of microbial growth being observed; O: no urinary antiseptic activity and no inhibition of microbial growth are observed
# Procedure: (§1) Separate groups of mice are fasted overnight, but are provided with water ad libitum prior to oral administration of a substituted amidine test compound. […] Urine is collected in sterile containers at intervals over the period from 1 to 24 hours after administration of the test compound. The collected urine is assayed for antimicrobial activity against Escherichia coli, Pseudomonas aeruginosa and a Proteus species, either Proteus vulgaris or Proteus mirabilis. Urine samples collected from the separate groups of mice administered one of 2-(4-chlorophenyl)acetamidine hydrochloride, 2-(4-bromophenyl)-acetamidinehydrochloride, 2-(4-chlorophenyl)acetamidoxime hydrochloride and 2-(4-bromophenyl)acetamidoxime hydrochloride are found to be active against all three test organisms.
# (§2) The procedure of Example 1 is repeated, employing the substituted amidine compound 2-(4-bromophenyl)-acetamidine hydrochloride, and the known antiseptics gentamicin and nalidixic acid as test compounds. […]
# [2] = tested on: Pseudomonas aeruginosa; experiment: Antimicrobial activity of urine collected from mice after oral dosing, against Pseudomonas aeruginosa; format: in vivo; details: for antimicrobial activity of urine against Pseudomonas: 60 mg/kg, similar operations; for antimicrobial activity of urine against Pseudomonas aeruginosa: oral, 50 mg/kg, urine collected 1 to 24 hours; for urinary antiseptic activity, PA: single oral dose 56.2 mg/kg; as to urinary antiseptic activity, PA: key: +: urinary antiseptic activity and inhibition of microbial growth being observed; O: no urinary antiseptic activity and no inhibition of microbial growth are observed
# Procedure: as §1, §2
# [3] = tested on: Proteus species, either Proteus vulgaris or Proteus mirabilis; experiment: Antimicrobial activity of urine collected from mice after oral dosing, against a Proteus species (Example 1); format: in vivo, Proteus vulgaris or Proteus mirabilis (urine from mice); details: for antimicrobial activity of urine against Proteus: 60 mg/kg, similar operations; for antimicrobial activity of urine against Proteus species: oral, 50 mg/kg, urine collected 1 to 24 hours
# Procedure: as §1
# [4] = Standard pharmacological evaluation procedures in mice; format: in vivo; details: 60 mg/kg
# Procedure: In other operations, 2-(4-bromophenyl)acetamidine hydrochloride is administered to mice at a dosage rate of 60 milligrams per kilogram in a series of standard pharmacological evaluation procedures.
# [5] = tested on: Proteus mirabilis; experiment: Proteus mirabilis urinary tract infection in Holtzman rats (Example 5); format: in vivo; details: PO
# Description: (§3) Several groups of Wistar rats are surgically prepared and given a urinary tract infection by injection into the lumen of the bladder of 0.1 milliliter of a brain-heart infusion broth culture of Proteus mirabilis, in a procedure similar to that of Miraglia, Transact. N.Y. Acad. Sc. 32, 337 (1970). One group is similarly prepared surgically, but is not infected with the test organism, providing an operated, non-infected control group. Three hours after the surgical operations are complete, the animals in three of the groups (the test groups) are orally administered 100 milligrams per kilogram of nalidixic acid, or 2-(4-bromophenyl)acetamidine hydrochloride at a dosage rate of 50 or 100 milligrams per kilogram. A fourth group is not administered any test compound to serve as an infected control group.
# (§4) The animals in each group are weighed daily and the test compounds are administered to the test groups daily at the same dosage rate for a total of 14 days. At the end of the 14 day test period, the animals are sacrificed. Swabs of the kidney pelvis and samples of bladder urine are obtained and examined by bacteriological culture techniques, and pathological examinations are carried out.
# The operations of Example 4 are repeated using six Holtzman rats per group and using nitrofurantoin instead of nalidixic acid.
# [6] = tested on: Proteus mirabilis; experiment: Proteus mirabilis urinary tract infection in Wistar rats, 14 days treatment (Example 4); format: in vivo; details: infected Wistar rats, oral
# Description: as §3, §4
# [7] = tested on: Proteus vulgaris; experiment: Antimicrobial activity of urine collected from mice after oral dosing, against Proteus vulgaris (Example 2); format: in vivo; details: single oral dose 56.2 mg/kg; also: key: +: urinary antiseptic activity and inhibition of microbial growth being observed; O: no urinary antiseptic activity and no inhibition of microbial growth are observed
# Procedure: Separate groups of mice are fasted overnight, but are provided with water ad libitum prior to oral administration of a substituted amidine test compound. The test compounds are administered orally at a dosage rate of 50 milligrams of test compound per kilogram of animal body weight in an aqueous carrier. Urine is collected in sterile containers at intervals over the period from 1 to 24 hours after administration of the test compound. The collected urine is assayed for antimicrobial activity against Escherichia coli, Pseudomonas aeruginosa and a Proteus species, either Proteus vulgaris or Proteus mirabilis. Urine samples collected from the separate groups of mice administered one of 2-(4-chlorophenyl)acetamidine hydrochloride, 2-(4-bromophenyl)-acetamidinehydrochloride, 2-(4-chlorophenyl)acetamidoxime hydrochloride and 2-(4-bromophenyl)acetamidoxime hydrochloride are found to be active against all three test organisms.
# The procedure of Example 1 is repeated, employing the substituted amidine compound 2-(4-bromophenyl)-acetamidine hydrochloride, and the known antiseptics gentamicin and nalidixic acid as test compounds. Each test compound is administered in a single oral dose of 56.2 milligrams per kilogram; and separate urine samples are separately collected and assayed at intervals of 1, 4 and 24 hours after administration.
# [8] = Acute oral lethality (LD50) in mice; details: mouse, in vivo, mice, per os, 24 hours, read-out: LD50 (dosage lethal to 50 percent of the mice)
# Procedure: Separate groups of mice are separately administered an aqueous composition containing 2-(4-bromophenyl)acetamidine hydrochloride. The compound is administered per os at various dosage rates, and the animals are held for 24 hours, after which deaths are recorded, and the LD50 (dosage lethal to 50 percent of the mice) is determined.
# [9] = tested on: Proteus mirabilis; experiment: Proteus mirabilis urinary tract infection in rats, bacterial count per kidney (Example 6); format: in vivo; details: oral, three doses at 4, 28, 52 hours, 72 hours
# Procedure: In a similar operation, a Proteus mirabilis urinary tract infection was established in rats using a similar surgical technique. In separate groups, the test compound 2-(4-bromophenyl)acetamidine p-toluene-sulfonate, or the reference compound nalidixic acid, were administered orally in three doses, 4, 28 and 52 hours after completion of the surgical technique used to establish the infection. Separate groups of rats were left untreated to serve as controls. After 72 hours, the animals were euthanized with carbon dioxide. The left kidney was removed, homogenized in 9 milliliters sterile saline solution, and fivefold dilutions of the resulting brei were made in brain-heart infusion broth. Bacterial counts in the dilutions were determined after 24 hours incubation at 37° C. The oral dose in milligrams per kilogram (mg/kg); millimoles per kilogram (mM); the number of animals in each group, and the base ten logarithm (Log10) of the bacterial count (number of organisms per kidney) are set out below.
# [10] = oral, 50 mg/kg, urine collected 1 to 24 hours
# [11] = 50 or 100 mg/kg per day, 14 days
molecule,measurement,setting,value
"NC(Cc1ccc(Cl)cc1Cl)=NO [2-(2,4-dichlorophenylacetamidoxime hydrochloride, reference compound]",antimicrobial activity of urine against E. coli,"[1]; 60 mg/kg, similar operations",ineffective
same,antimicrobial activity of urine against Pseudomonas,[2],ineffective
same,antimicrobial activity of urine against Proteus,[3],ineffective
Cl.N=C(N)Cc1ccc(Br)cc1 [2-(4-bromophenyl)acetamidine hydrochloride],analgesic activity,[4],no significant
same,anorectic activity,[4],no significant
same,anti-thrombotic activity,[4],some anti-thrombotic activity
same,antidepressant activity,[4],no significant
same,hypotensive activity,[4],no significant
same,sedative activity,[4],no significant
same,antimicrobial activity of urine against E. coli,[1]; [10],active
same,"urinary antiseptic activity, EC",[1]; urine at 1 hour,+
same,"urinary antiseptic activity, EC",[1]; urine at 4 hours,+
same,"urinary antiseptic activity, EC",[1]; urine at 24 hours,+
same,Percent Infection (percent of surviving rats with Proteus infection of any degree),[5]; 50 mg/kg,60.0%
same,Percent Pathology (percent total pathology signs observed over total possible observations times 100),[5]; 50 mg/kg,13.6%
same,Percent Weight Gain,[5]; 50 mg/kg,16.6%
same,Percent Infection (percent of surviving rats with Proteus infection of any degree),[5]; 100 mg/kg,20.0%
same,Percent Pathology (percent total pathology signs observed over total possible observations times 100),[5]; 100 mg/kg,12.7%
same,Percent Weight Gain,[5]; 100 mg/kg,19.2%
same,weight gain rate,"[6]; 50 mg/kg per day, 14 days",normal in all but one of the rats
same,weight gain rate after the tenth day,"[6]; 50 mg/kg per day, after the tenth day",normal for all the rats in this group after the tenth day
same,weight gain rate,"[6]; 100 mg/kg per day, 2-(4-bromophenyl)-acetamidine hydrochloride group",approximately mormal in all but two of the rats
same,weight gain after the sixth day,"[6]; 100 mg/kg per day, after the sixth day",normal weight gain is observed with all but one of the test animals
same,gross pathological changes attributable to the infection,[6]; [11],No gross pathological changes attributable to the infection
same,infecting Proteus organism in swab and urine cultures,[6]; [11],no evidence of the infecting Proteus organism
same,bacteriological culture of swabs and urine,"[6]; 50 or 100 mg/kg per day, 14 days, except slight E. coli growth in one rat",bacteriologically sterile
same,growth of E. coli in urine and kidney swab cultures,"[6]; 50 or 100 mg/kg per day, one of the rats, attributed to contamination during autopsy",slight growth of E. coli noted in the urine and one of the kidney swabs from one of the rats
same,"urinary antiseptic activity, PV",[7]; urine at 1 hour,+
same,"urinary antiseptic activity, PV",[7]; urine at 4 hours,+
same,LD50 at 24 h,[8],562 mg/kg
same,antimicrobial activity of urine against Pseudomonas aeruginosa,[2],active
same,"urinary antiseptic activity, PA",[2]; urine at 1 hour,+
same,"urinary antiseptic activity, PA",[2]; urine at 4 hours,+
same,antimicrobial activity of urine against Proteus species,[3],active
Cl.NC(Cc1ccc(Br)cc1)=NO [2-(4-bromophenyl)acetamidoxime hydrochloride],antimicrobial activity of urine against E. coli,[1]; [10],active
same,antimicrobial activity of urine against Pseudomonas aeruginosa,[2],active
same,antimicrobial activity of urine against Proteus species,[3],active
"Cl.N=C(N)COc1ccc(Cl)cc1 [2-(4-chlorophenoxy)acetamidine hydrochloride, reference compound]",antimicrobial activity of urine against E. coli,"[1]; 60 mg/kg, similar operations",ineffective
same,antimicrobial activity of urine against Pseudomonas,[2],ineffective
same,antimicrobial activity of urine against Proteus,[3],ineffective
Cl.N=C(N)Cc1ccc(Cl)cc1 [2-(4-chlorophenyl)acetamidine hydrochloride],antimicrobial activity of urine against E. coli,[1]; [10],active
same,antimicrobial activity of urine against Pseudomonas aeruginosa,[2],active
same,antimicrobial activity of urine against Proteus species,[3],active
Cl.NC(Cc1ccc(Cl)cc1)=NO [2-(4-chlorophenyl)acetamidoxime hydrochloride],antimicrobial activity of urine against E. coli,[1]; [10],active
same,antimicrobial activity of urine against Pseudomonas aeruginosa,[2],active
same,antimicrobial activity of urine against Proteus species,[3],active
"Cl.NC(Cc1ccc([N+](=O)[O-])cc1)=NO [2-(4-nitrophenyl)acetamidoxime hydrochloride, reference compound]",antimicrobial activity of urine against E. coli,"[1]; 60 mg/kg, similar operations",effective against E. coli
same,antimicrobial activity of urine against Pseudomonas,[2],not against the Pseudomonas or Proteus test organisms
same,antimicrobial activity of urine against Proteus,[3],not against the Pseudomonas or Proteus test organisms
"NC(Cc1ccccc1)=NO [2-phenylacetamidioxime hydrochloride, reference compound]",antimicrobial activity of urine against E. coli,"[1]; 60 mg/kg, similar operations",ineffective
same,antimicrobial activity of urine against Pseudomonas,[2],ineffective
same,antimicrobial activity of urine against Proteus,[3],ineffective
"CCn1cc(C(=O)O)c(=O)c2ccc(C)nc21 [Nalidixic acid, nalidixic acid, reference compound]","urinary antiseptic activity, EC",[1]; urine at 1 hour,+
same,"urinary antiseptic activity, EC",[1]; urine at 4 hours,+
same,Mean Bacterial Count (number of organisms per kidney),[9]; 50 mg/kg,3.20 Log10
same,Mean Bacterial Count (number of organisms per kidney),[9]; 100 mg/kg,2.56 Log10
same,bacteriological culture of kidney pelvis swabs and bladder urine,"[6]; 100 mg/kg per day, 14 days",bacteriologically sterile
same,gross pathology attributable to the infection,"[6]; 100 mg/kg per day, 14 days",No gross pathology attributable to the infection
same,weight gain,"[6]; 100 mg/kg per day, 14 days",gain weight normally
same,"urinary antiseptic activity, PV",[7]; urine at 1 hour,+
same,"urinary antiseptic activity, PV",[7]; urine at 4 hours,+
same,"urinary antiseptic activity, PA",[2]; urine at 4 hours,+
"O=C1CN(/N=C/c2ccc([N+](=O)[O-])o2)C(=O)N1 [Nitrofurantoin, nitrofurantoin, reference compound]",Percent Infection (percent of surviving rats with Proteus infection of any degree),[5]; 100 mg/kg,33.0%
same,Percent Pathology (percent total pathology signs observed over total possible observations times 100),[5]; 100 mg/kg,13.6%
same,Percent Weight Gain,[5]; 100 mg/kg,16.9%
same,"Percent Weight Gain, excluding one rat with unexplained severe weight loss","[5]; 100 mg/kg, excluding one rat",20.7%
gentamicin,"urinary antiseptic activity, EC",[1]; urine at 1 hour,+
same,"urinary antiseptic activity, PV",[7]; urine at 1 hour,+
same,"urinary antiseptic activity, PV",[7]; urine at 4 hours,+
